# Species on record: Rattus norvegicus
# Test: DrugMatrix - Regimen: Daily Repeat
# Format: toxicity, organism-based, Sprague-Dawley
# Design: regimen Daily Repeat, gender Male, age 6-8 weeks
# Conditions: in vivo, po, route oral GAVAGE, vehicle .5 % CMC; for ABSOLUTE BASOPHIL / ABSOLUTE EOSINOPHIL / ABSOLUTE LYMPHOCYTE / ABSOLUTE MONOCYTE / ABSOLUTE SEGMENTED NEUTROPHIL / BASOPHIL / EOSINOPHIL / ERYTHROCYTE COUNT / HEMATOCRIT / HEMOGLOBIN / LEUKOCYTE COUNT / LYMPHOCYTE / MEAN CORPUSCULAR HEMOGLOBIN / MEAN CORPUSCULAR HEMOGLOBIN CONCENTRATION / MEAN CORPUSCULAR VOLUME / MONOCYTE / NEUTROPHIL / NUCLEATED RED BLOOD CELLS / PLATELET COUNT: tissue Blood; for ALANINE AMINOTRANSFERASE / ALBUMIN / ALKALINE PHOSPHATASE / ASPARTATE AMINOTRANSFERASE / BLOOD UREA NITROGEN / CARBON DIOXIDE / CHLORIDE / CHOLESTEROL / CREATINE PHOSPHOKINASE / CREATININE / GLUCOSE / LACTATE DEHYDROGENASE / LIPASE / PHOSPHORUS / POTASSIUM / SODIUM / TOTAL BILIRUBIN / TOTAL PROTEIN / URIC ACID: tissue Plasma
# [1] = 0 mg/kg, 72 h, dose level Control, time 3 day
# [2] = 0 mg/kg, 120 h, dose level Control, time 5 day
# [3] = 200 mg/kg, 72 h, dose level Low, time 3 day
compound,measurement,setting,value
CCC1=C(C)CN(C(=O)NCCc2ccc(S(=O)(=O)NC(=O)N[C@H]3CC[C@H](C)CC3)cc2)C1=O [GLIMEPIRIDE],ABSOLUTE BASOPHIL,[1],0 CELLS/uL
same,ABSOLUTE EOSINOPHIL,[1],0 CELLS/uL
same,ABSOLUTE LYMPHOCYTE,[1],12191.17 CELLS/uL
same,ABSOLUTE MONOCYTE,[1],183.17 CELLS/uL
same,ABSOLUTE SEGMENTED NEUTROPHIL,[1],1192.33 CELLS/uL
same,BASOPHIL,[1],0%
same,EOSINOPHIL,[1],0%
same,ERYTHROCYTE COUNT,[1],5.51 x10E6/uL
same,HEMATOCRIT,[1],35.45%
same,HEMOGLOBIN,[1],13.82 G/DL
same,LEUKOCYTE COUNT,[1],13.57 x10E3/uL
same,LYMPHOCYTE,[1],89.83%
same,MEAN CORPUSCULAR HEMOGLOBIN,[1],25.1 pg
same,MEAN CORPUSCULAR HEMOGLOBIN CONCENTRATION,[1],38.98 G/DL
same,MEAN CORPUSCULAR VOLUME,[1],64.42 fL
same,MONOCYTE,[1],1.33%
same,NEUTROPHIL,[1],8.83%
same,NUCLEATED RED BLOOD CELLS,[1],0 /100WBC
same,PLATELET COUNT,[1],1118.17 x10E3/uL
same,ALANINE AMINOTRANSFERASE,[1],55 u/L
same,ALBUMIN,[1],4.15 G/DL
same,ALKALINE PHOSPHATASE,[1],449.5 u/L
same,ASPARTATE AMINOTRANSFERASE,[1],112.83 u/L
same,BLOOD UREA NITROGEN,[1],17.33 mg/dL
same,CARBON DIOXIDE,[1],29.5 mmol/L
same,CHLORIDE,[1],101 MEQ/L
same,CHOLESTEROL,[1],70 mg/dL
same,CREATINE PHOSPHOKINASE,[1],1325.83 u/L
same,CREATININE,[1],0.18 mg/dL
same,GLUCOSE,[1],171.5 mg/dL
same,LACTATE DEHYDROGENASE,[1],386 u/L
same,LIPASE,[1],10 u/L
same,PHOSPHORUS,[1],11.57 mg/dL
same,POTASSIUM,[1],6.21 MEQ/L
same,SODIUM,[1],141.65 MEQ/L
same,TOTAL BILIRUBIN,[1],0.15 mg/dL
same,TOTAL PROTEIN,[1],5.75 G/DL
same,URIC ACID,[1],1.28 mg/dL
same,ABSOLUTE BASOPHIL,[2],0 CELLS/uL
same,ABSOLUTE EOSINOPHIL,[2],138.17 CELLS/uL
same,ABSOLUTE LYMPHOCYTE,[2],13283.17 CELLS/uL
same,ABSOLUTE MONOCYTE,[2],303.83 CELLS/uL
same,ABSOLUTE SEGMENTED NEUTROPHIL,[2],1308.17 CELLS/uL
same,BASOPHIL,[2],0%
same,EOSINOPHIL,[2],1%
same,ERYTHROCYTE COUNT,[2],5.32 x10E6/uL
same,HEMATOCRIT,[2],33.8%
same,HEMOGLOBIN,[2],13.63 G/DL
same,LEUKOCYTE COUNT,[2],15.03 x10E3/uL
same,LYMPHOCYTE,[2],88.33%
same,MEAN CORPUSCULAR HEMOGLOBIN,[2],25.68 pg
same,MEAN CORPUSCULAR HEMOGLOBIN CONCENTRATION,[2],40.35 G/DL
same,MEAN CORPUSCULAR VOLUME,[2],63.67 fL
same,MONOCYTE,[2],1.83%
same,NEUTROPHIL,[2],8.83%
same,NUCLEATED RED BLOOD CELLS,[2],0 /100WBC
same,PLATELET COUNT,[2],1097.5 x10E3/uL
same,ALANINE AMINOTRANSFERASE,[2],54.5 u/L
same,ALBUMIN,[2],4.27 G/DL
same,ALKALINE PHOSPHATASE,[2],337 u/L
same,ASPARTATE AMINOTRANSFERASE,[2],94.67 u/L
same,BLOOD UREA NITROGEN,[2],17 mg/dL
same,CARBON DIOXIDE,[2],28.33 mmol/L
same,CHLORIDE,[2],101.5 MEQ/L
same,CHOLESTEROL,[2],71.33 mg/dL
same,CREATINE PHOSPHOKINASE,[2],628.17 u/L
same,CREATININE,[2],0.19 mg/dL
same,GLUCOSE,[2],177.83 mg/dL
same,LACTATE DEHYDROGENASE,[2],500.5 u/L
same,LIPASE,[2],9.5 u/L
same,PHOSPHORUS,[2],12.3 mg/dL
same,POTASSIUM,[2],5.63 MEQ/L
same,SODIUM,[2],143.03 MEQ/L
same,TOTAL BILIRUBIN,[2],0.2 mg/dL
same,TOTAL PROTEIN,[2],6.02 G/DL
same,URIC ACID,[2],1.5 mg/dL
same,ABSOLUTE BASOPHIL,[3],0 CELLS/uL
same,ABSOLUTE EOSINOPHIL,[3],128.33 CELLS/uL
same,ABSOLUTE LYMPHOCYTE,[3],12992 CELLS/uL
same,ABSOLUTE MONOCYTE,[3],35 CELLS/uL
same,ABSOLUTE SEGMENTED NEUTROPHIL,[3],1711.33 CELLS/uL
same,BASOPHIL,[3],0%
same,EOSINOPHIL,[3],1%
same,ERYTHROCYTE COUNT,[3],5.2 x10E6/uL
same,HEMATOCRIT,[3],33.43%
same,HEMOGLOBIN,[3],13.5 G/DL
same,LEUKOCYTE COUNT,[3],14.87 x10E3/uL
same,LYMPHOCYTE,[3],87%
same,MEAN CORPUSCULAR HEMOGLOBIN,[3],26.03 pg
same,MEAN CORPUSCULAR HEMOGLOBIN CONCENTRATION,[3],40.4 G/DL
same,MEAN CORPUSCULAR VOLUME,[3],64.33 fL
same,MONOCYTE,[3],0.33%
same,NEUTROPHIL,[3],11.67%
same,NUCLEATED RED BLOOD CELLS,[3],0 /100WBC
same,PLATELET COUNT,[3],1286.33 x10E3/uL
same,ALANINE AMINOTRANSFERASE,[3],61.67 u/L
same,ALBUMIN,[3],4.23 G/DL
same,ALKALINE PHOSPHATASE,[3],355.67 u/L
same,ASPARTATE AMINOTRANSFERASE,[3],97.67 u/L
same,BLOOD UREA NITROGEN,[3],16.33 mg/dL
same,CARBON DIOXIDE,[3],24 mmol/L
same,CHLORIDE,[3],103.67 MEQ/L
same,CHOLESTEROL,[3],81.33 mg/dL
same,CREATINE PHOSPHOKINASE,[3],1168 u/L
same,CREATININE,[3],0.16 mg/dL
same,GLUCOSE,[3],150.33 mg/dL
same,LACTATE DEHYDROGENASE,[3],169.33 u/L
same,LIPASE,[3],10 u/L
same,PHOSPHORUS,[3],12.27 mg/dL
same,POTASSIUM,[3],5.69 MEQ/L
same,SODIUM,[3],144.2 MEQ/L
same,TOTAL BILIRUBIN,[3],0.13 mg/dL
same,TOTAL PROTEIN,[3],5.83 G/DL
same,URIC ACID,[3],1.53 mg/dL

# Reference: ChEMBL document CHEMBL3885881, “DrugMatrix”
